Results from ChEMBL document CHEMBL1154932, “Structure-based drug design enables conversion of a DFG-in binding CSF-1R kinase inhibitor to a DFG-out binding mode” (Bioorg Med Chem Lett, 2010).

Key:
[1] = biological target: hERG (KCNH2) (Homo sapiens, UniProt Q12809); test: Inhibition of CyB-tagged dofetilide binding to human ERG at 10 uM; conditions: probe CyB-tagged dofetilide
[2] = biological target: Macrophage colony-stimulating factor 1 receptor (Homo sapiens, UniProt P07333); test: Inhibition of human CSF1R autophosphorylation expressed in HEK293 cells after 1 hr by ELISA
Chain of Macrophage colony-stimulating factor 1 receptor (P07333 whole entry): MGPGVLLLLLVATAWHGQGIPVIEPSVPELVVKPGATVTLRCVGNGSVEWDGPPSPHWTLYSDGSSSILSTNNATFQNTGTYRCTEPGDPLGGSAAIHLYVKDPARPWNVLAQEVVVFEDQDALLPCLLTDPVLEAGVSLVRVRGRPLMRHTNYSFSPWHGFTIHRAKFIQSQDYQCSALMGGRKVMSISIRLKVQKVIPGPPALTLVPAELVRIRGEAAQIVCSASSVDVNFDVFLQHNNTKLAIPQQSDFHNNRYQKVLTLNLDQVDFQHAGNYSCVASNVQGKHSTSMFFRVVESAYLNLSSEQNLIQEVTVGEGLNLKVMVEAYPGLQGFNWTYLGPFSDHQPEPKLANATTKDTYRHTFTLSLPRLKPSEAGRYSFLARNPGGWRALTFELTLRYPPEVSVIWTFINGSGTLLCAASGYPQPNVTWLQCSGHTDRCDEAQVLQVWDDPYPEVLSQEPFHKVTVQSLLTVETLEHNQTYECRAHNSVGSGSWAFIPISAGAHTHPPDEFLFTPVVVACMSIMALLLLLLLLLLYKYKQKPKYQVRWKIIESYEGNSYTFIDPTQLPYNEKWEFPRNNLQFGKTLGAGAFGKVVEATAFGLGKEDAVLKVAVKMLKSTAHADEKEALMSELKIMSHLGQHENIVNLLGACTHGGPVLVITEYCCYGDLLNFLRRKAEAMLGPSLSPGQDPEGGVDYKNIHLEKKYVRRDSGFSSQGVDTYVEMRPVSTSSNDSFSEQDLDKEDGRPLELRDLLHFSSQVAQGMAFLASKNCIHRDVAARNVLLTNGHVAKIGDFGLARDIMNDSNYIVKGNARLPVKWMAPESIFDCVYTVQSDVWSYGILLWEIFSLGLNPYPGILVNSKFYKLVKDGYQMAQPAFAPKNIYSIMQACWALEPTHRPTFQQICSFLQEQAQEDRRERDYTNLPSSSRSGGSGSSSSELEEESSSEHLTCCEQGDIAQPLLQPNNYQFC

Chain of hERG (KCNH2) (Q12809 whole entry): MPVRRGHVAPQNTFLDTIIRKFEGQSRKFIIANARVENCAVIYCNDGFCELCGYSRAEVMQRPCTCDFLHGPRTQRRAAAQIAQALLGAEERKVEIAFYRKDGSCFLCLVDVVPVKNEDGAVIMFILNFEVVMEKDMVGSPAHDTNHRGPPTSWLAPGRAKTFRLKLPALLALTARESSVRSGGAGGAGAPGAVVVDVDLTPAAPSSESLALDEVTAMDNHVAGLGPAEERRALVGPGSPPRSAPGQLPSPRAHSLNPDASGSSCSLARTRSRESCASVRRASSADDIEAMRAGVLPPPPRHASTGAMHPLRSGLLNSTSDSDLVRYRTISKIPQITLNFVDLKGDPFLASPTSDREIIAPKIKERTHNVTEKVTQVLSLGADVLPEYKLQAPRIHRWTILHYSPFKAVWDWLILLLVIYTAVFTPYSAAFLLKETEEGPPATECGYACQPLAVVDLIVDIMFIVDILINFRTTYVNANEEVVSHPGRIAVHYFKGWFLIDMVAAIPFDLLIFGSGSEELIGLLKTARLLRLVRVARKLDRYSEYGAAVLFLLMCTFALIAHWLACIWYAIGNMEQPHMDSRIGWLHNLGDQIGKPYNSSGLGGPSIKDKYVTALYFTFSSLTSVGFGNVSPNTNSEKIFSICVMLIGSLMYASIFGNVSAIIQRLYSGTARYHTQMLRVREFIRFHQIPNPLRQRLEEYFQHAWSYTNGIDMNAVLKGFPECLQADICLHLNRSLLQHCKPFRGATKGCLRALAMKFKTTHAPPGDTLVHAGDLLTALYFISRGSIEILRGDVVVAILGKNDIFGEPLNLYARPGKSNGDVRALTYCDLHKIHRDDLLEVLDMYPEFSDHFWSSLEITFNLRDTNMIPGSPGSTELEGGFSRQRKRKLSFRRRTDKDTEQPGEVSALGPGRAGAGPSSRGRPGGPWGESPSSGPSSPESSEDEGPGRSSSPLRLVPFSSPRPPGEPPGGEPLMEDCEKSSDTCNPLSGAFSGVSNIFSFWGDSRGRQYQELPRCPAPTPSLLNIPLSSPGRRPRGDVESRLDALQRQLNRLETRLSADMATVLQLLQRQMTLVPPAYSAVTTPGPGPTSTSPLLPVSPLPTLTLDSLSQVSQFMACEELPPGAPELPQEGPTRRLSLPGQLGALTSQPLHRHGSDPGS

Row | SMILES | inhibition at 10 µM [1] [%] | IC50 [2] [nM]
1 | Nc1ncc(-c2ccc(C(=O)N3CCC[C@H]3CN3CCCC3)cc2)nc1NCc1c(Cl)cccc1Cl | 78 | –
2 | Cn1cc(-c2cnc(N)c(OCc3c(Cl)cccc3Cl)n2)cn1 | 7 | –
3 | Cn1cc(-c2cnc(N)c(OCc3ccccc3Cl)n2)cn1 | 7 | –
4 | Nc1ncc(-c2ccc(C(=O)N3CCC[C@H]3CN3CCCC3)cc2)nc1OCc1c(Cl)cccc1Cl | 91 | –
5 | COc1ccc(COc2ncc(Oc3nc(-c4cnn(C)c4)cnc3N)cc2OC)cc1 | – | 12
6 | Cn1cc(-c2cnc(N)c(NCc3c(Cl)cccc3Cl)n2)cn1 | 6 | –
